# Reference: the NIST ThermoML archive (doi:10.1021/je0503251)
# ± gives the expanded uncertainty stated by the source.
# Details: Liquid, Closed cell (Static) method
compound,measurement,setting,value
"FC(F)CC(F)(F)F [1,1,1,3,3-pentafluoropropane]",vapor or sublimation pressure,253.12 K,19.34 ± 0.7 kPa
same,vapor or sublimation pressure,258.16 K,25.37 ± 0.7 kPa
same,vapor or sublimation pressure,263.13 K,32.79 ± 0.7 kPa
same,vapor or sublimation pressure,268.12 K,41.88 ± 0.7 kPa
same,vapor or sublimation pressure,273.12 K,52.91 ± 0.71 kPa
same,vapor or sublimation pressure,278.12 K,66.17 ± 0.71 kPa
same,vapor or sublimation pressure,283.15 K,82.07 ± 0.71 kPa
same,vapor or sublimation pressure,285.14 K,89.11 ± 0.71 kPa
same,vapor or sublimation pressure,288.12 K,100.56 ± 0.72 kPa
same,vapor or sublimation pressure,293.09 K,122.2 ± 0.72 kPa
same,vapor or sublimation pressure,295.08 K,131.93 ± 0.73 kPa
same,vapor or sublimation pressure,298.06 K,147.46 ± 0.73 kPa
same,vapor or sublimation pressure,303.06 K,177.01 ± 0.75 kPa
same,vapor or sublimation pressure,305.05 K,190.2 ± 0.76 kPa
same,vapor or sublimation pressure,308.05 K,210.95 ± 0.77 kPa
same,vapor or sublimation pressure,310.09 K,225.91 ± 0.78 kPa
same,vapor or sublimation pressure,313.1 K,249.94 ± 0.79 kPa
same,vapor or sublimation pressure,315.08 K,266.8 ± 0.8 kPa
same,vapor or sublimation pressure,318.12 K,294.26 ± 0.82 kPa
same,vapor or sublimation pressure,320.17 K,312.44 ± 0.84 kPa
same,vapor or sublimation pressure,323.16 K,343.03 ± 0.86 kPa
same,vapor or sublimation pressure,325.16 K,364.63 ± 0.88 kPa
same,vapor or sublimation pressure,328.16 K,398.98 ± 0.91 kPa
same,vapor or sublimation pressure,330.16 K,423.22 ± 0.93 kPa
same,vapor or sublimation pressure,333.16 K,461.65 ± 0.97 kPa
same,vapor or sublimation pressure,338.16 K,531.78 ± 1 kPa
same,vapor or sublimation pressure,343.16 K,609.29 ± 1.1 kPa
same,vapor or sublimation pressure,345.16 K,642.58 ± 1.2 kPa
same,vapor or sublimation pressure,348.16 K,695.02 ± 1.2 kPa
same,vapor or sublimation pressure,353.16 K,789.45 ± 1.3 kPa
same,vapor or sublimation pressure,358.16 K,893.28 ± 1.5 kPa
same,vapor or sublimation pressure,363.16 K,1007 ± 1.6 kPa
same,vapor or sublimation pressure,368.13 K,1130.3 ± 1.8 kPa
same,vapor or sublimation pressure,373.13 K,1265.7 ± 2 kPa
same,vapor or sublimation pressure,378.16 K,1413.6 ± 2.2 kPa
same,vapor or sublimation pressure,383.15 K,1573.3 ± 2.5 kPa
same,vapor or sublimation pressure,388.14 K,1745.4 ± 2.7 kPa
same,vapor or sublimation pressure,393.14 K,1932.2 ± 3 kPa
same,vapor or sublimation pressure,398.12 K,2133.2 ± 3.3 kPa
same,vapor or sublimation pressure,403.07 K,2348.2 ± 3.7 kPa
COCOC [dimethoxymethane],vapor or sublimation pressure,283.13 K,27.73 ± 1.4 kPa
same,vapor or sublimation pressure,285.13 K,30.39 ± 1.4 kPa
same,vapor or sublimation pressure,288.11 K,34.73 ± 1.4 kPa
same,vapor or sublimation pressure,293.07 K,43.08 ± 1.4 kPa
same,vapor or sublimation pressure,295.07 K,46.83 ± 1.4 kPa
same,vapor or sublimation pressure,298.07 K,52.94 ± 1.4 kPa
same,vapor or sublimation pressure,300.07 K,57.14 ± 1.4 kPa
same,vapor or sublimation pressure,303.05 K,64.26 ± 1.4 kPa
same,vapor or sublimation pressure,305.05 K,69.42 ± 1.4 kPa
same,vapor or sublimation pressure,308.05 K,77.74 ± 1.4 kPa
same,vapor or sublimation pressure,310.07 K,83.8 ± 1.4 kPa
same,vapor or sublimation pressure,313.16 K,93.85 ± 1.4 kPa
same,vapor or sublimation pressure,318.13 K,111.95 ± 1.4 kPa
same,vapor or sublimation pressure,323.17 K,132.98 ± 1.4 kPa
same,vapor or sublimation pressure,325.18 K,142.06 ± 1.4 kPa
same,vapor or sublimation pressure,328.17 K,156.44 ± 1.4 kPa
same,vapor or sublimation pressure,330.17 K,166.67 ± 1.4 kPa
same,vapor or sublimation pressure,333.17 K,182.96 ± 1.4 kPa
same,vapor or sublimation pressure,335.17 K,194.47 ± 1.4 kPa
same,vapor or sublimation pressure,338.16 K,212.79 ± 1.4 kPa
same,vapor or sublimation pressure,340.16 K,225.73 ± 1.4 kPa
same,vapor or sublimation pressure,343.16 K,246.24 ± 1.4 kPa
same,vapor or sublimation pressure,345.16 K,260.68 ± 1.4 kPa
same,vapor or sublimation pressure,348.16 K,283.65 ± 1.5 kPa
same,vapor or sublimation pressure,353.16 K,325.16 ± 1.5 kPa
same,vapor or sublimation pressure,358.16 K,371.53 ± 1.5 kPa
same,vapor or sublimation pressure,363.16 K,421.82 ± 1.5 kPa
same,vapor or sublimation pressure,368.16 K,477.61 ± 1.6 kPa
same,vapor or sublimation pressure,373.15 K,538.51 ± 1.6 kPa
same,vapor or sublimation pressure,378.16 K,605.33 ± 1.6 kPa
same,vapor or sublimation pressure,383.13 K,677.68 ± 1.7 kPa
same,vapor or sublimation pressure,388.15 K,757.05 ± 1.8 kPa
same,vapor or sublimation pressure,393.16 K,842.82 ± 1.9 kPa
same,vapor or sublimation pressure,398.15 K,935.48 ± 1.9 kPa
